Patent US11702422B2, “Imidazopyridazines as modulators of IL-17” (Janssen Pharmaceutica NV, priority 2020, dated 2023)

Tests used:
[1] = molecular target: IL-17A(FLAG-Tagged): IL-17RA(His-Tagged) (Homo sapiens, UniProt Q16552, K93Q); assay: IL-17A(FLAG-Tagged): IL-17RA(His-Tagged) Binding Disruption Eu-HTRF Assay; details: IL-17A/IL-17RA binding disruption, simple average if tested more than once
How it was run: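 IC50 comes from a one-site competition fit of the HTRF 665/620 nm ratio. Compound dilutions (2-fold, 22 points) were held 1 h rt with FLAG-tagged IL-17A dimer, then His-tagged IL-17RA plus Eu-cryptate anti-FLAG and D2 anti-His antibodies were added for 2 h rt.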

[2] = tested on: IL-17A-induced G-CSF production in human normal keratinocyte (NHK); assay: NHK Assay: IL-17A-induced G-CSF production in human normal keratinocytes; type: cell-based; details: 24 h, adult normal human keratinocytes, IL-17A 5 ng/mL, simple average if tested more than once
How it was run: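 Adult normal human keratinocytes were seeded at 3000-4000 cells/well. Recombinant human IL-17A was pre-incubated 1 h at rt with titrated compound, then added to cells (final 5 ng/mL IL-17A, 0.2% DMSO, 5% FBS) for 24 h at 37° C. Supernatant G-CSF was measured by HTRF against a standard curve to give IC50.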

Sequence of UniProt Q16552 (Q16552 with tags, fused parts or gaps K93Q): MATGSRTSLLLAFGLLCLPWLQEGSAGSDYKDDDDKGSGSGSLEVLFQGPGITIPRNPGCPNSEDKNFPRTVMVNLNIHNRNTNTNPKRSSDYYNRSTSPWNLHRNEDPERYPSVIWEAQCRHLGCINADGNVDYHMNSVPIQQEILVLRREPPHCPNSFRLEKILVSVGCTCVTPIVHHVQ

SMILES | IC50 [1] | IC50 ([2]; Homo sapiens, Keratinocyte) | IC50 [2]
CC(C)c1nonc1C(=O)N[C@H](c1cn2ncc(C(NC(=O)CCC(F)(F)F)C(C)C)cc2n1)C1CCC(F)(F)CC1 (single isomer, unassigned) [Example 511, N—((S)-(4,4-Difluorocyclohexyl)(7-((S*)-2-methyl-1-(4,4,4-trifluorobutanamido)propyl)imidazo[1,2-b]pyridazin-2-yl)methyl)-4-isopropyl-1,2,5-oxadiazole-3-carboxamide] | 46 nM | 21 nM | –
CC(C)C(NC(=O)CC1CC(F)(F)C1)c1cnn2cc([C@@H](NC(=O)c3nonc3C3CC3)C3CCC(F)(F)CC3)nc2c1 (single isomer, unassigned) [Example 512, 4-Cyclopropyl-N—((S)-(7-((S*)-1-(2-(3,3-difluorocyclobutyl)acetamido)-2-methylpropyl)imidazo[1,2-b]pyridazin-2-yl)(4,4-difluorocyclohexyl)methyl)-1,2,5-oxadiazole-3-carboxamide] | 30 nM | 35 nM | –
Cc1nonc1C(=O)N[C@H](c1cn2ncc(C(NC(=O)CC3CC(F)(F)C3)C(C)C)cc2n1)C1CCC(F)(F)CC1 (single isomer, unassigned) [Example 513, N—((S)-(7-((S*)-1-(2-(3,3-Difluorocyclobutyl)acetamido)-2-methylpropyl)imidazo[1,2-b]pyridazin-2-yl)(4,4-difluorocyclohexyl)methyl)-4-methyl-1,2,5-oxadiazole-3-carboxamide] | 74 nM | 150 nM | –
Cc1nonc1C(=O)N[C@H](c1cn2ncc(C(NC(=O)CCC(F)(F)F)C(F)F)cc2n1)C1CCC(F)(F)CC1 (single isomer, unassigned) [Example 516, N—((S)-(7-((R*)-2,2-Difluoro-1-(4,4,4-trifluorobutanamido)ethyl)imidazo[1,2-b]pyridazin-2-yl)(4,4-difluorocyclohexyl)methyl)-4-methyl-1,2,5-oxadiazole-3-carboxamide] | 1900 nM | – | > 20000 nM
O=C(CC1CC(F)(F)C1)NC(c1cnn2cc([C@@H](NC(=O)c3nonc3C3CC3)C3CCC(F)(F)CC3)nc2c1)C(F)F (single isomer, unassigned) [Example 517, 4-Cyclopropyl-N—((S)-(7-((S*)-1-(2-(3,3-difluorocyclobutyl)acetamido)-2,2-difluoroethyl)imidazo[1,2-b]pyridazin-2-yl)(4,4-difluorocyclohexyl)methyl)-1,2,5-oxadiazole-3-carboxamide] | 46 nM | – | 45 nM
CC(C)n1nccc1C(=O)N[C@H](c1cn2ncc(C(NC(=O)CC3CC(F)(F)C3)C(F)F)cc2n1)C1CCC(F)(F)CC1 (single isomer, unassigned) [Example 519, N—((S)-(7-((S*)-1-(2-(3,3-Difluorocyclobutyl)acetamido)-2,2-difluoroethyl)imidazo[1,2-b]pyridazin-2-yl)(4,4-difluorocyclohexyl)methyl)-1-isopropyl-1H-pyrazole-5-carboxamide] | 190 nM | – | 53 nM
CCC(NC(=O)CC1CC(F)(F)C1)c1cnn2cc([C@@H](NC(=O)c3ccnn3C(C)C)C3CCC(F)(F)CC3)nc2c1 (single isomer, unassigned) [Example 520, N—((S)-(7-((S*)-1-(2-(3,3-Difluorocyclobutyl)acetamido)propyl)imidazo[1,2-b]pyridazin-2-yl)(4,4-difluorocyclohexyl)methyl)-1-isopropyl-1H-pyrazole-5-carboxamide] | 660 nM | 5000 nM | –
[2H]C([2H])([2H])C([2H])([2H])n1nccc1C(=O)N[C@H](c1cn2ncc(C(COC)NC(=O)CC3CC(F)(F)C3)cc2n1)C1CCC(F)(F)CC1 (single isomer, unassigned) [Example 522, N—((S)-(7-((S*)-1-(2-(3,3-Difluorocyclobutyl)acetamido)-2-methoxyethyl)imidazo[1,2-b]pyridazin-2-yl)(4,4-difluorocyclohexyl)methyl)-1-(ethyl-d5)-1H-pyrazole-5-carboxamide] | 2200 nM | – | 3600 nM
[2H]C([2H])([2H])C([2H])([2H])n1nccc1C(=O)N[C@H](c1cn2ncc(C(COC)NC(=O)CC3CC(F)(F)C3)cc2n1)C1CCC(F)(F)CC1 (single isomer, unassigned) [Example 523, N—((S)-(7-((R*)-1-(2-(3,3-Difluorocyclobutyl)acetamido)-2-methoxyethyl)imidazo[1,2-b]pyridazin-2-yl)(4,4-difluorocyclohexyl)methyl)-1-(ethyl-d5)-1H-pyrazole-5-carboxamide] | 270 nM | – | 110 nM
COCC(NC(=O)CC1CC(F)(F)C1)c1cnn2cc([C@@H](NC(=O)c3nonc3C3CC3)C3CCC(F)(F)CC3)nc2c1 (single isomer, unassigned) [Example 524, 4-Cyclopropyl-N—((S)-(7-((S*)-1-(2-(3,3-difluorocyclobutyl)acetamido)-2-methoxyethyl)imidazo[1,2-b]pyridazin-2-yl)(4,4-difluorocyclohexyl)methyl)-1,2,5-oxadiazole-3-carboxamide] | 380 nM | – | 3700 nM
COCC(NC(=O)CC1CC(F)(F)C1)c1cnn2cc([C@@H](NC(=O)c3nonc3C3CC3)C3CCC(F)(F)CC3)nc2c1 (single isomer, unassigned) [Example 525, 4-Cyclopropyl-N—((S)-(7-((R*)-1-(2-(3,3-difluorocyclobutyl)acetamido)-2-methoxyethyl)imidazo[1,2-b]pyridazin-2-yl)(4,4-difluorocyclohexyl)methyl)-1,2,5-oxadiazole-3-carboxamide] | 59 nM | – | 42 nM
CCOCC(NC(=O)CC1CC(F)(F)C1)c1cnn2cc([C@@H](NC(=O)c3nonc3C3CC3)C3CCC(F)(F)CC3)nc2c1 (single isomer, unassigned) [Example 526, 4-Cyclopropyl-N—((S)-(7-((S*)-1-(2-(3,3-difluorocyclobutyl)acetamido)-2-ethoxyethyl)imidazo[1,2-b]pyridazin-2-yl)(4,4-difluorocyclohexyl)methyl)-1,2,5-oxadiazole-3-carboxamide] | 320 nM | – | 1200 nM
CCOCC(NC(=O)CC1CC(F)(F)C1)c1cnn2cc([C@@H](NC(=O)c3nonc3C3CC3)C3CCC(F)(F)CC3)nc2c1 (single isomer, unassigned) [Example 527, 4-Cyclopropyl-N—((S)-(7-((R*)-1-(2-(3,3-difluorocyclobutyl)acetamido)-2-ethoxyethyl)imidazo[1,2-b]pyridazin-2-yl)(4,4-difluorocyclohexyl)methyl)-1,2,5-oxadiazole-3-carboxamide] | 57 nM | – | 110 nM
CCOCC(NC(=O)CC1CC(F)(F)C1)c1cnn2cc([C@@H](NC(=O)c3ccnn3C(C)C)C3CCC(F)(F)CC3)nc2c1 (single isomer, unassigned) [Example 528, N—((S)-(7-((R*)-1-(2-(3,3-Difluorocyclobutyl)acetamido)-2-ethoxyethyl)imidazo[1,2-b]pyridazin-2-yl)(4,4-difluorocyclohexyl)methyl)-1-isopropyl-1H-pyrazole-5-carboxamide] | 900 nM | – | 2400 nM
